Measured values from patent publication US20230106519A1, “GOLD(III)-BIGUANIDE PRODRUGS, METHODS OF PREPARATION AND USES THEREOF” (National University of Singapore, priority 2020, published 2023).
Entries after “also recorded” stand apart in the source; their conditions may differ. Like-named read-outs stand apart in the source and are kept apart here. One block for each compound: values may come before it.

Legend:
rat liver TrxR = target: T1, rat liver TrxR (Rattus norvegicus, UniProt O89049); assay: Thioredoxin reductase inhibition, DTNB reduction assay
T1 sequence (O89049 1-499): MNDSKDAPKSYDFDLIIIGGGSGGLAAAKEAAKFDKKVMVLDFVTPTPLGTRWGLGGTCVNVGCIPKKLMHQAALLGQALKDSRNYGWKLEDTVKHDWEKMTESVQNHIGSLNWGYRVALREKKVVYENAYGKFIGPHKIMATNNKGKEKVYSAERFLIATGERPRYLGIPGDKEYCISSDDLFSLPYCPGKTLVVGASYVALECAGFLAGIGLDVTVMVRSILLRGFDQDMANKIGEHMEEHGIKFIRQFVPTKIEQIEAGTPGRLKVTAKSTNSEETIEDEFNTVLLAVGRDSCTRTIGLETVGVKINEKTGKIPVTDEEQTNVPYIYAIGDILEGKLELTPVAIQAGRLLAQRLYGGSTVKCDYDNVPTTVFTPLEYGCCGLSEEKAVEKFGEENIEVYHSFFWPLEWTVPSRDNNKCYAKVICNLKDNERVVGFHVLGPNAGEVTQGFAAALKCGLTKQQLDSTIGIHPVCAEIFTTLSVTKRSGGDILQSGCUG
Experimental: Thioredoxin reductase inhibition assay. Assay was performed according to the protocol provided by the manufacturer. […] Compounds of interest were serially diluted at the separate 96-well plate and 4 μl of each concentration was added to the appropriate wells. The reaction mixture was incubated with gentle shaking (room temperature, 30 minutes). Subsequently, 6 μl of DNTB (100 mM) was added and incubated for an additional 3 minutes.
Compounds of interest at six different concentrations were incubated with the isolated rat liver TrxR enzyme in the presence of NADPH for 30 minutes, followed by 2 minutes incubation with the DNTB reagent.

[1] = tested on: MDA-MB-231 (breast adenocarcinoma); assay: MTT cytotoxicity assay, MDA-MB-231; conditions: for EC50: read-out: EC50 MDA-MB-231
Experimental: (§1) Human ovarian carcinoma cells A2780 and A2780cisR, and human breast adenocarcinoma MDA-MB-231 cells, murine hepatocytes TAMH and human cardiomyocytes AC10 were obtained from ATCC. […] The stock of cisplatin was commercially available clinical grade solution in saline buffer.
(§2) Inhibition of cell viability assay. The cytotoxicity of the compounds was determined by colorimetric MTT assay. The cells were harvested from culture flasks by trypsinization and seeded into Cellstar 96-well microculture plates at the seeding density of 6000 cells per well (6×10^4 cells/mL). TAMH and AC10 cells were seeded at 12000 and 5000 cells per well, respectively. After cells were allowed to resume exponential growth for 24 hours, they were exposed to drugs at different concentrations in media for 72 hours. The drugs were diluted in complete medium at the desired concentration and added to each well (100 μL) and serially diluted to other wells. After exposure for 72 hours, the media was replaced with MTT in media (5 mg/mL, 100 μL) and incubated for additional 45 minutes. Subsequently, the medium was aspirated and the purple formazan crystals formed in viable cells were dissolved in DMSO (100 μL). Optical densities were measured at 570 nm using the BioTek H1 Synergy microplate reader. […] Evaluation was based on means from at least three independent experiments, each comprising six replicates per concentration level.

[2] = tested on: TAMH (transforming growth factor-a transgenic mouse hepatocytes); assay: MTT toxicity assay in hepatocytes TAMH; conditions: read-out: EC50 TAMH, exposure time 72 hours
Experimental: (§3) Cell lines and culture conditions. Human ovarian carcinoma cells A2780 and A2780cisR, and human breast adenocarcinoma MDA-MB-231 cells, murine hepatocytes TAMH and human cardiomyocytes AC10 were obtained from ATCC.
Inhibition of cell viability assay. The cytotoxicity of the compounds was determined by colorimetric MTT assay. The cells were harvested from culture flasks by trypsinization and seeded into Cellstar 96-well microculture plates at the seeding density of 6000 cells per well (6×10^4 cells/mL). TAMH and AC10 cells were seeded at 12000 and 5000 cells per well, respectively. After cells were allowed to resume exponential growth for 24 hours, they were exposed to drugs at different concentrations in media for 72 hours. The drugs were diluted in complete medium at the desired concentration and added to each well (100 μL) and serially diluted to other wells. After exposure for 72 hours, the media was replaced with MTT in media (5 mg/mL, 100 μL) and incubated for additional 45 minutes. Subsequently, the medium was aspirated and the purple formazan crystals formed in viable cells were dissolved in DMSO (100 μL). Optical densities were measured at 570 nm using the BioTek H1 Synergy microplate reader. […] Evaluation was based on means from at least three independent experiments, each comprising six replicates per concentration level. […]

[3] = tested on: A2780 (ovarian carcinoma); assay: MTT cytotoxicity assay, A2780; conditions: read-out: EC50 A2780
Experimental: as §1, §2

[4] = tested on: AC10 (human ventricular cardiomyocytes); assay: MTT toxicity assay in cardiomyocytes AC10
Experimental: as §3
Inhibition of cell viability assay. The cytotoxicity of the compounds was determined by colorimetric MTT assay. The cells were harvested from culture flasks by trypsinization and seeded into Cellstar 96-well microculture plates at the seeding density of 6000 cells per well (6×10^4 cells/mL). TAMH and AC10 cells were seeded at 12000 and 5000 cells per well, respectively. After cells were allowed to resume exponential growth for 24 hours, they were exposed to drugs at different concentrations in media for 72 hours. The drugs were diluted in complete medium at the desired concentration and added to each well (100 μL) and serially diluted to other wells. After exposure for 72 hours, the media was replaced with MTT in media (5 mg/mL, 100 μL) and incubated for additional 45 minutes. Subsequently, the medium was aspirated and the purple formazan crystals formed in viable cells were dissolved in DMSO (100 μL). Optical densities were measured at 570 nm using the BioTek H1 Synergy microplate reader. […] Evaluation was based on means from at least three independent experiments, each comprising six replicates per concentration level. For experiments with inhibitors, MDA-MB-231 cells were seeded at the seeding density of 8000 cells per well (8×10^4 cells/mL).

[5] = tested on: A2780cisR (ovarian carcinoma); assay: MTT cytotoxicity assay, A2780cisR; conditions: for RF (Resistance Factor): IC50 (A2780cisR)/IC50 (A2780); for EC50: read-out: EC50 A2780cisR
Experimental: as §1, §2

MDA-MB-231 cells [6] = assay: Annexin V/PI apoptosis assay; conditions: MDA-MB-231, 24 hours, equipotent concentrations
Experimental: Annexin V/PI apoptosis assay. MDA-MB-231 cells were seeded into Cellstar 12-well plates (Greiner Bio-One) at a density of 20×10^4 cells/well (1 mL per well). […] After the supernatant solution was collected in 1.5 mL microtubes, the cells were washed with 100 μl of trypsin, which was combined with the supernatant. Subsequently, cells were trypsinized with 200 μl trypsin for 5 minutes at 37° C., 5% CO2, washed with 200 μl of PBS and combined with the supernatant. The cells were centrifuged at 2.5×10^3 rpm for 5 minutes and the pellets were washed once with PBS and resuspended in 500 μl of Annexin V binding buffer and stained with Annexin V-FITC and PI reagents. The fluorescence was immediately analyzed by flow cytometry. The resulting dot blots were acquired from 10000 events and quantified using Flowjo software (Flowjo LLC, Ashland, Oreg., USA).
MDA-MB-231 cells were treated with the compounds of interest at equipotent concentrations, corresponding to their IC50 values (FIG. 57).

MDA-MB-231 cells [7] = assay: Cellular accumulation of Au by ICP-MS; conditions: ICP-MS after 24 hour exposure at 1.4 μM
Experimental: Cellular accumulation of Au complexes was determined in MDA-MB-231 cells. Cells were seeded into Cellstar 6-well plates (Greiner Bio-one) at a density of 60×10^4 cells/well (2 mL per well). After the cells were allowed to resume exponential growth for 24 hours, they were exposed to compounds of interest at various concentrations for 24 hours at 37° C. The cells were washed twice with 1 mL of PBS and lysed with RIPA lysis buffer for 5-10 min at 4° C. The cell lysates were scraped from the wells and transferred to separate 1.5 mL microtubes. The supernatant was then collected after centrifugation (13000 rpm, 4° C. for 15 minutes) and total protein content of each sample was quantified via Bradford's assay. […] The resulting solution was diluted to 1 mL (2-4% v/v HNO3) with ultrapure Milli-Q water. Au content of each sample was quantified by ICP-MS. Re was used as an internal standard. […] Metal standards for calibration curve (0, 0.5, 1, 2, 5, 10, 20, 40 ppb) were freshly prepared before each measurement. All readings were made in triplicates in He mode.

[8] = Stability in ammonium carbonate buffer by high resolution ESI-MS; conditions: ammonium carbonate buffer pH 7.4, 37° C., 1, 3 and 24 hours
Experimental: NMR and mass spectrometric (MS) methods were employed to characterize the stability of Au complexes in DMSO and aqueous media. ^1H NMR stability studies were performed over the period of 6-10 days in d^6-DMSO and D2O (1met*).

[9] = Reactivity towards glutathione, ligand release (HR-MS, UV-vis); format: physicochemical; conditions: with GSH; HR-MS and UV-vis
Text: NMR- and MS-based stability studies.
Intriguingly, the reactivity of Au^III-metformin complexes towards GSH was drastically different despite their similar structures.

[10] = tested on: MDA-MB-231 (breast adenocarcinoma)
Experimental: as §1, §2

MDA-MB-231 tumors = conditions: 250 mg/kg; cited from earlier work
[11] = tested on: AMPK-mTOR energy signaling pathway; conditions: MDA-MB-231, 0.5×-2×EC50, 2, 6, 24 hours
Experimental: Western blotting. MDA-MB-231 cells were seeded into Cellstar 6-well plates (Greiner Bio-One) at a density of 60×10^4 cells/well (2 mL per well). After the cells were allowed to resume exponential growth for 24 hours, they were exposed to compounds of interest at various concentrations for 2, 6 and 24 hours. The cells were washed twice with PBS and lysed with RIPA buffer (50-100 μL) and kept for 5-10 minutes at 4° C. The samples were sonicated in ice bath (3 times for 30 seconds). […] Equal quantities of protein (50 μg) were reconstituted in loading buffer (5× Laemmli Buffer with 5% DTT) and heated at 100° C. for 10 minutes. […] The protein bands were visualised with Ponceau S stain solution and the nitrocellulose membranes were cut into strips based on the protein ladder. The membranes were washed with a TBS-T wash buffer (0.1% Tween-20 in 1×PBS) 3 times for 5 minutes. Subsequently, they were blocked in 5% BSA (w/v) in wash buffer for 1 hour and incubated with the appropriate primary antibodies in 5% BSA (w/v) in wash buffer at 4° C. overnight. The membranes were washed with a wash buffer 3 times for 7 minutes. […] Immune complexes were detected with Luminata HRP substrates and analysed using enhanced chemiluminescence imaging. […]

[12] = MTT assay, exposure time 72 hours

Experimental for Cyclic voltammetry: Cyclic voltammetry and spectroelectrochemistry. Cyclic voltammetry experiments with approximately 0.5 mM solutions of investigated gold complexes in 0.1 M nBu4NPF6 supporting electrolyte in dimethylsulphoxide (DMSO) or in pH 7 buffered solutions were performed under argon atmosphere using a three-electrode arrangement with glassy carbon 1 mm disc working electrode (from lonode, Australia), platinum wire as counter electrode, and silver wire as pseudo-reference electrode. Ferrocene (Fc) served as the internal potential standard for DMSO and potassium hexacyanoferrate(II) for aqueous solutions. […] The cell was positioned in the CUV-UV Cuvette Holder (Ocean Optics) connected to the diode-array UV-vis-NIR spectrometer by optical fibres. UV-vis-NIR spectra were processed using the AvaSoft 7.7 software package. Halogen and deuterium lamps were used as light sources (Avantes, Model AvaLight-DH-S-BAL).

Compound: CN(C)C1=[NH+][Au-]2([NH]C(N)=N1)[c]1ccccc1-c1cccc[n+]12 (centres unmarked) [1met*]
IC50 (rat liver TrxR): 0.0012 ± 0.0005 µM

Compound: N.N.[Cl][Pt][Cl] [Cisplatin]
EC50 [1, 12]: 27 ± 8 µM
EC50 [2]: 52 ± 7 µM
EC50 [3, 12]: 0.6 ± 0.05 µM
EC50 ([4]; read-out: EC50 AC10, MTT assay, exposure time 72 hours): 10 ± 2 µM
RF (Resistance Factor) [5]: 18
EC50 [5, 12]: 11 ± 2 µM
apoptotic cell population (MDA-MB-231 cells [6]): markedly lower

Compound: [Cl][Au-]1([Cl])[c]2ccccc2-c2cccc[n+]21 [Compound 1, (2-phenylpyridine)AuCl2]
EC50 [1, 12]: 7.8 ± 1.7 µM
EC50 [3, 12]: 2 ± 0.4 µM
RF (Resistance Factor) [5]: 2
EC50 [5, 12]: 4 ± 0.8 µM
apoptotic cell population (MDA-MB-231 cells [6]): significantly higher
Cellular accumulation MDA-MB-231 (MDA-MB-231 cells [7]): 0.36 ± 0.10 nmol Au/mg protein

Compound: NC1=NC(NCCc2ccccc2)=[NH+][Au-]2([NH]1)[c]1ccccc1-c1cccc[n+]12 (centres unmarked) [Compound 1phen]
stability, detection of molecular ion [M]+ [8]: not detected after 1 hour incubation
cytotoxicity in words ([1]; tested cancer cell lines, MTT 72 h): least cytotoxic representative of this series
IC50 (rat liver TrxR): 0.0031 ± 0.0015 µM
apoptotic cell population (MDA-MB-231 cells [6]): no changes in apoptotic population
reactivity towards GSH / ligand release in words [9]: release of phenformin was detected; also recorded: Only the peak at m/z 206.1622, which corresponds to free phenformin, was observed

Cellular accumulation MDA-MB-231 (MDA-MB-231 cells [7]): 0.14 ± 0.03 nmol Au/mg protein
Compound: [Cl][Au-]1([Cl])[c]2ccccc2Cc2cccc[n+]21 [Compound 2, (2-benzylpyridine)Au^IIICl2]
EC50 [1, 12]: 7.1 ± 0.4 µM
EC50 [3, 12]: 6.5 ± 0.8 µM
RF (Resistance Factor) [5]: 1
EC50 [5, 12]: 7.2 ± 1.5 µM

Compound: CN(C)C1=[NH+][Au-]2([NH]C(N)=N1)[c]1ccccc1Cc1cccc[n+]12 (centres unmarked) [Compound 2met]
stability, detection of molecular ion [M]+ [8]: stable for 24 hours
IC50 (rat liver TrxR): 0.00055 ± 9e-05 µM
reactivity towards GSH / ligand release in words [9]: stable both in the absence and presence of GSH; also recorded: did not significantly change over time

Cellular accumulation MDA-MB-231 (MDA-MB-231 cells [7]): 0.14 ± 0.05 nmol Au/mg protein
Compound: O=C1c2cccc[c]2[Au-]([Cl])([Cl])[n+]2ccccc21 [Compound 3, (2-benzoylpyridine)Au^IIICl2]
EC50 [1, 12]: 19 ± 3 µM
EC50 [3, 12]: 8.6 ± 1.7 µM
RF (Resistance Factor) [5]: 1
EC50 [5, 12]: 9.1 ± 2.9 µM

redox activity in words (Cyclic voltammetry): did not show any redox activity
Compound: CN(C)C(=N)N=C(N)N [Metformin]
EC50 ([1]; Homo sapiens, MDA-MB-231, 72 h): > 1000 µM
cytotoxicity in words [10]: devoid of cytotoxicity
EC50 ([3]; Homo sapiens, A2780, 72 h): > 1000 µM
EC50 ([5]; Homo sapiens, A2780cisR, 72 h): > 1000 µM
apoptotic cell population (MDA-MB-231 cells [6]): markedly lower
anticancer effects in an MDA-MB-231 mammary fat model (MDA-MB-231 tumors): negligible

Compound: [H]/N=C(/N)N/C(=N/[H])NCCc1ccccc1 [Phenformin]
EC50 ([1]; Homo sapiens, MDA-MB-231, 72 h): 608 ± 23 µM
EC50 ([3]; Homo sapiens, A2780, 72 h): 104 ± 21 µM
EC50 ([5]; Homo sapiens, A2780cisR, 72 h): 246 ± 24 µM

Compound: COc1cccc2c1C(=O)c1c(O)c3c(c(O)c1C2=O)C[C@@](O)(C(=O)CO)C[C@@H]3O[C@H]1C[C@H](N)[C@H](O)[C@H](C)O1 [doxorubicin]
IC50 ([4]; read-out: IC50 value in AC10 cells (heart toxicity)): 2.3 ± 0.2 µM

Compound: [Au^III(2-phenylpyridine)(metformin)]PF6 [Compound 1met]
AMPK and mTOR phosphorylation [11]: dose-dependent increase of AMPK phosphorylation and decrease of mTOR phosphorylation
